Experiments:
[1] = tested on: HBV genotype C; serum HBsAg; assay: Serum HBsAg levels in HBV-infected humanized FRG model mice; assay type: in vivo, FRG mice transplanted with human hepatocytes; settings: mouse A-1; PBS (no RNAi agent); oral daily gavage 0.01 mg/kg Entecavir from day 1; Day 8
Protocol: ii) Serum Hepatitis B surface antigen (HBsAg) levels: Serum was collected and diluted 10 to 8000-fold in PBS containing 5% nonfat dry milk. Secondary HBsAg standards diluted in the nonfat milk solution were prepared from serum of ICR mice (Harlan Sprague Dawley) that had been transfected with 10 μg HBsAg-expressing plasmid pRc/CMV-HBs (Aldevron, Fargo, N. Dak.). HBsAg levels were determined with a GS HBsAg EIA 3.0 kit (Bio-Rad Laboratories, Inc., Redmond, Wash.) as described by the manufacturer. Recombinant HBsAg protein, ayw subtype, also diluted in nonfat milk in PBS, was used as a primary standard (Aldevron). […]
Serum was collected on day 8, day 15, day 22, day 29, day 36, and day 40 and serum Hepatitis B surface antigen (HBsAg) levels were determined pursuant to the procedure set forth in Example 2, above.

[2] = tested on: HBV genotype C; serum HBV DNA; assay: Serum HBV DNA levels in HBV-infected humanized FRG model mice; assay type: in vivo, FRG mice transplanted with human hepatocytes; settings: for Serum HBV DNA levels normalized to the average of pre-treatment day −10 and day −3: PBS (no RNAi agent), oral daily gavage 0.01 mg/kg Entecavir from day 1
Protocol: iv) Serum HBV DNA levels: Equal volumes of serum from mice in a group or subgroup were pooled to a final volume of 100 μL. DNA was isolated from serum samples using the QIAamp MinElute Virus Spin Kit (Qiagen, Valencia, Calif.) following the manufacturer's instructions. Sterile 0.9% saline was added to each sample to a final volume of 200 μL. Serum samples were added to tubes containing buffer and protease. Carrier RNA was added to aid in the isolation of small amounts of DNA. […] After incubating 15 min at 56° C., nucleic acids were precipitated from the lysates with ethanol and the entire solution applied to a column. After washing, the samples were eluted into a volume of 50 μL Buffer AVE.
The number of copies of HBV genomes in DNA isolated from the pHBV mouse model serum was determined by qPCR. Plasmid pSEAP-HBV353-777, encoding a short segment of the HBV genome within the S gene (bases 353-777 of GenBank accession #V01460), was used to create a six log standard curve. Samples with recovery of DNA below 2 standard deviations from the average, based on detection of pHCR/UbC-SEAP were omitted. TaqMan chemistry-based primers and probes with fluor/ZEN/IBFQ are utilized.
qPCR assays were performed on a 7500 Fast or StepOne Plus Real-Time PCR system (Life Technologies). For evaluation of HBV DNA in serum, DNA was isolated from singlet or duplicate purification steps from pooled group serum samples. Quantitations of HBV DNA and recovery control plasmid were determined by qPCR reactions performed in triplicate. The probes to quantitate HBV and pHCR/UbC-SEAP were included in each reaction.
For this study, Male FRG® (genotype Fah −/−/Rag2−/−/Il2rg −/− triple knockout mice on a C57BL/6 background (Yecuris) were transplanted with human hepatocytes when they were 1-2 months old. The human hepatocytes were allowed to repopulate the liver for approximately 6 months with periodic NTBC treatment to discourage growth of mouse hepatocytes. At 9 months of age the mice were given an intravenous inoculation of 4×10^8 genomes/kg HBV genotype C, which infected the human hepatocytes. After 2-3 months, serum HBV DNA levels reached a plateau indicating the human hepatocytes were maximally infected (mouse hepatocytes cannot be infected by HBV). Mice were one year old at the start of treatment with HBV RNAi agents, thus nearing the end of their life span.
Pre-treatment serum samples were taken on day −10 and day −3. Beginning on day 1, each mouse was administered an oral daily gavage with 0.01 mg/kg Entecavir dissolved in water to inhibit HBV replication. Daily dosing of Entecavir continued until the day mice were euthanized. Entecavir administration was expected to reduce serum HBV DNA in chronically infected human patients, but not reduce HBsAg.
Each mouse was also given a subcutaneous administration of 100 μl per 20 grams body weight containing the amount of HBV RNAi agent(s) formulated in phosphate buffered saline, or an equal volume of phosphate buffered saline without an HBV RNAi agent, on day 1 and on day 29 (if still alive on day 29), pursuant to the schedule as set forth in Table 47, directly above. […] The injections were performed between the skin and muscle (i.e. subcutaneous injections) into the loose skin over the neck and shoulder area.
Additionally, serum HBV DNA levels were determined from serum samples collected on days −10, −3, 8, 15, 22, 29, 36, and 40, pursuant to the procedure set forth in Example 2, above.

C=C1[C@H](CO)[C@@H](O)C[C@@H]1n1cnc2c(=O)[nH]c(N)nc21 [Entecavir]
Average HBsAg levels normalized to pre-treatment (day −3) [1]: 0.830
viral replication (serum HBV DNA) ([2]; Example 18, 0.01 mg/kg Entecavir oral daily gavage): reduced viral replication in both the absence and presence of HBV RNAi agents
Serum HBV DNA levels normalized to the average of pre-treatment day −10 and day −3 ([2]; mouse A-1, Day 8): 0.072
Serum HBV DNA levels normalized to the average of pre-treatment day −10 and day −3 ([2]; mouse A-1, Day 15): 0.038
Serum HBV DNA levels normalized to the average of pre-treatment day −10 and day −3 ([2]; mouse A-1, Day 22): 0.015
Serum HBV DNA levels normalized to the average of pre-treatment day −10 and day −3 ([2]; mouse A-1, Day 29): 0.027
Serum HBV DNA levels normalized to the average of pre-treatment day −10 and day −3 ([2]; mouse A-1, Day 36): 0.060
Serum HBV DNA levels normalized to the average of pre-treatment day −10 and day −3 ([2]; mouse A-2, Day 8): 0.130
Serum HBV DNA levels normalized to the average of pre-treatment day −10 and day −3 ([2]; mouse A-2, Day 15): 0.075

— patent publication US11590156B2, “RNAi agents for hepatitis B virus infection” (Arrowhead Pharmaceuticals, Inc., priority 2016, dated 2023)
